From patent US12281149B2, “Modulators of G-protein coupled receptors” (priority 2021, dated 2025)
*1 amine or outer side, *2 acyl side, *3 side chain or, on linkers, in order; H or OH if unused. Where a SMILES comes first, the peptide text is derived from it. Side-chain parts run from the residue outwards. [ ]: non-standard residue; d: D form. The star is where a group is joined. Isobutyryl(2-(3-CN-5-F-Ph)) = CC(C)(C(=O)*)c1cc(F)cc(C#N)c1; C20 diacid = O=C(O)CCCCCCCCCCCCCCCCCCC(=O)*; β2hAla(2S) = C[C@@H](CN[*:1])C(=O)[*:2]; γGlu = O=C(O)[C@H](CCC(=O)[*:2])N[*:1]; d(β3hA) = C[C@@H](N)CC(=O)O; AEEA = NCCOCCOCC(=O)O; Aib = CC(C)(N)C(=O)O

Assays:
Format in all cases: cell-based
GIP receptor [1] = target: T1, GIP receptor (Homo sapiens, UniProt P48546); experiment: PathHunter β-arrestin assay, GIP receptor; design: host or cells: PathHunter CHO-K1 GIPR β-Arrestin Cell Line; conditions: β-arrestin-2 recruitment, PathHunter CHO-K1 GIPR β-Arrestin Cell Line, 90 min at 37° C.; normalized to GIP; read-out: GIPR β Arrestin EC50
T1 sequence (P48546 22-466): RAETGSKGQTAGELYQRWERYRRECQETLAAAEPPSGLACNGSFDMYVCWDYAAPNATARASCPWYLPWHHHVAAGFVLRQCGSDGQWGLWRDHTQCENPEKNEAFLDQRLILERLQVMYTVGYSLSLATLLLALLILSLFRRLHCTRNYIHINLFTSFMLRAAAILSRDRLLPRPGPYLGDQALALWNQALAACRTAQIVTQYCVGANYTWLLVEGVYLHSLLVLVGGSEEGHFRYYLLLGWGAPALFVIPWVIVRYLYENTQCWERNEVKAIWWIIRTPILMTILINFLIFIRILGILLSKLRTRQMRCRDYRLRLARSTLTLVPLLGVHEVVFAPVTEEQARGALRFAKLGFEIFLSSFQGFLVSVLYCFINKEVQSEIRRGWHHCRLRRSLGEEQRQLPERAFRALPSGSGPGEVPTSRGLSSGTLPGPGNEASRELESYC

GLP-1 receptor [2] = target: T2, GLP-1 receptor (Homo sapiens, UniProt P43220); experiment: HitHunter cAMP assay, GLP-1 receptor; conditions: for EC50: CHO cells stably expressing human GLP-1 receptor, cAMP accumulation, 30 min, read-out: EC50 GLP-1R; for Emax: CHO cells, cAMP, normalized to maximum signal from GLP-1 (high) and DMSO (low), read-out: Emax GLP-1R
T2 sequence (P43220 24-463): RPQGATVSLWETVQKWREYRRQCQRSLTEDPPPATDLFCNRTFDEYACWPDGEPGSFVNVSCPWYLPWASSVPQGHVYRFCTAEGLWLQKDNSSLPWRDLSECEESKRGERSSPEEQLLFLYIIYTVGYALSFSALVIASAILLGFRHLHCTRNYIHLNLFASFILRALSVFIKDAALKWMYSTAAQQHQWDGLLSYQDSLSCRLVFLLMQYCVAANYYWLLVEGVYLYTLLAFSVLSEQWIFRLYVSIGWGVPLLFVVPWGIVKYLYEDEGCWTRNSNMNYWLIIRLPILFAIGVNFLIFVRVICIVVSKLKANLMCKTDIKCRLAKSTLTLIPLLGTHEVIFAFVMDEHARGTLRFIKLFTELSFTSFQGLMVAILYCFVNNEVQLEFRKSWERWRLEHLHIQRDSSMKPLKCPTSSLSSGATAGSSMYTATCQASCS

GLP-1 receptor [3] = target: T2, GLP-1 receptor; experiment: PathHunter β-arrestin assay, GLP-1 receptor; design: host or cells: PathHunter CHO-K1 GLP1R β-Arrestin Cell Line; conditions: β-arrestin-2 recruitment, PathHunter CHO-K1 GLP1R β-Arrestin Cell Line, 90 min at 37° C.; normalized to GLP-1; read-out: GLP-1R β Arrestin EC50
GIP receptor [4] = target: T1, GIP receptor; experiment: HitHunter cAMP assay, GIP receptor; conditions: for EC50: CHO cells stably expressing GIP receptor, cAMP accumulation, 30 min, read-out: EC50 GIP-1R; for Emax: CHO cells, cAMP, normalized to maximum signal from GIP (high) and DMSO (low), read-out: Emax GIP-1R

Row | SMILES | EC50 (GIP receptor [1]) | EC50 (GLP-1 receptor [2]) | Emax (GLP-1 receptor [2]) | EC50 (GLP-1 receptor [3]) | EC50 (GIP receptor [4]) | Emax (GIP receptor [4])
1 | CC[C@H](C)[C@H](NC(=O)[C@H](CC(C)C)NC(=O)[C@H](Cc1c[nH]c2ccccc12)NC(=O)[C@H](CCC(N)=O)NC(=O)[C@@H](NC(=O)[C@H](Cc1ccccc1)NC(=O)[C@H](C)NC(=O)[C@H](CCCCNC(=O)COCCOCCNC(=O)COCCOCCNC(=O)CC[C@H](NC(=O)CCCCCCCCCCCCCCCCCCC(=O)O)C(=O)O)NC(=O)[C@H](CCC(N)=O)NC(=O)[C@H](C)NC(=O)[C@@H](NC(=O)[C@H](CCCCN)NC(=O)[C@H](CC(=O)O)NC(=O)[C@H](CC(C)C)NC(=O)C(C)(C)NC(=O)[C@@H](NC(=O)[C@H](CO)NC(=O)[C@H](Cc1ccc(O)cc1)NC(=O)[C@H](CC(=O)O)NC(=O)[C@H](CO)NC(=O)[C@@H](NC(=O)[C@H](Cc1ccccc1)NC(=O)[C@@H](NC(=O)CNC(=O)[C@H](CCC(=O)O)NC(=O)C[C@@H](C)NC(=O)C(C)(C)c1cc(F)cc(C#N)c1)[C@@H](C)O)[C@@H](C)O)[C@@H](C)CC)[C@@H](C)CC)C(C)C)C(=O)N[C@@H](C)C(=O)NCC(=O)NCC(=O)N1CCC[C@H]1C(=O)N[C@@H](CO)C(=O)N[C@@H](CO)C(=O)NCC(=O)N[C@@H](C)C(=O)N1CCC[C@H]1C(=O)N1CCC[C@H]1C(=O)N1CCC[C@H]1C(=O)N[C@@H](CO)C(N)=O [Compound 223] ({Isobutyryl(2-(3-CN-5-F-Ph))}-[d(β3hA)]EGTFTSDYSI[Aib]LDKIAQK([AEEA-AEEA-γGlu-C20 diacid])AFVQWLIAGGPSSGAPPPS-NH2) | > 1000 nM | 10 to 100 nM | 96% | > 1000 nM | 100 to 1000 nM | 42%
2 | CC[C@H](C)[C@H](NC(=O)[C@H](CC(C)C)NC(=O)[C@H](Cc1c[nH]c2ccccc12)NC(=O)[C@H](CCC(N)=O)NC(=O)[C@@H](NC(=O)[C@H](Cc1ccccc1)NC(=O)[C@H](C)NC(=O)[C@H](CCCCNC(=O)COCCOCCNC(=O)COCCOCCNC(=O)CC[C@H](NC(=O)CCCCCCCCCCCCCCCCCCC(=O)O)C(=O)O)NC(=O)[C@H](CCC(N)=O)NC(=O)[C@H](C)NC(=O)[C@@H](NC(=O)[C@H](CCCCN)NC(=O)[C@H](CC(=O)O)NC(=O)[C@H](CC(C)C)NC(=O)C(C)(C)NC(=O)[C@@H](NC(=O)[C@H](CO)NC(=O)[C@H](Cc1ccc(O)cc1)NC(=O)[C@H](CC(=O)O)NC(=O)[C@H](CO)NC(=O)[C@@H](NC(=O)[C@H](Cc1ccccc1)NC(=O)[C@@H](NC(=O)CNC(=O)[C@H](CCC(=O)O)NC(=O)[C@@H](C)CNC(=O)C(C)(C)c1cc(F)cc(C#N)c1)[C@@H](C)O)[C@@H](C)O)[C@@H](C)CC)[C@@H](C)CC)C(C)C)C(=O)N[C@@H](C)C(=O)NCC(=O)NCC(=O)N1CCC[C@H]1C(=O)N[C@@H](CO)C(=O)N[C@@H](CO)C(=O)NCC(=O)N[C@@H](C)C(=O)N1CCC[C@H]1C(=O)N1CCC[C@H]1C(=O)N1CCC[C@H]1C(=O)N[C@@H](CO)C(N)=O [Compound 224] ({Isobutyryl(2-(3-CN-5-F-Ph))}-[β2hAla(2S)]EGTFTSDYSI[Aib]LDKIAQK([AEEA-AEEA-γGlu-C20 diacid])AFVQWLIAGGPSSGAPPPS-NH2) | < 1000 nM | 0.1 to 1 nM | 102% | > 1000 nM | 1 to 10 nM | 103%
